Measurements as given in paper PMC8711236 (Biochemistry, 2021).

Target: Cytochrome P450 3A4 (CYP3A4) (Homo sapiens, UniProt P08684)
Assay: UV-vis spectral equilibrium titration
Type: binding

Cytochrome P450 3A4 (CYP3A4), sequence (P08684 14-503): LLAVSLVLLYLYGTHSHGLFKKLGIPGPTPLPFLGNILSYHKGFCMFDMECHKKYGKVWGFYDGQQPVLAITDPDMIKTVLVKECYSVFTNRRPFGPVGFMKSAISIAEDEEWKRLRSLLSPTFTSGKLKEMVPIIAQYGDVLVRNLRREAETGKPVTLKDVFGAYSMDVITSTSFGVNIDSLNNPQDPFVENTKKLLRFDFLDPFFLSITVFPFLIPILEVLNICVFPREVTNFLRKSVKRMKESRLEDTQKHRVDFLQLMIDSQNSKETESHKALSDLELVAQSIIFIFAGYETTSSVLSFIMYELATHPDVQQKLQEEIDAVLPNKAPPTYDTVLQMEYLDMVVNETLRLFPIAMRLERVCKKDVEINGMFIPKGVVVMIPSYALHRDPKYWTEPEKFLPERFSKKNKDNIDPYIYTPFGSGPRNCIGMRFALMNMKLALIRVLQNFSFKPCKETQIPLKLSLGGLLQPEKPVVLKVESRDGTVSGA
Cytochrome P450 3A4 (CYP3A4), sequence (P00388 2-678 partner): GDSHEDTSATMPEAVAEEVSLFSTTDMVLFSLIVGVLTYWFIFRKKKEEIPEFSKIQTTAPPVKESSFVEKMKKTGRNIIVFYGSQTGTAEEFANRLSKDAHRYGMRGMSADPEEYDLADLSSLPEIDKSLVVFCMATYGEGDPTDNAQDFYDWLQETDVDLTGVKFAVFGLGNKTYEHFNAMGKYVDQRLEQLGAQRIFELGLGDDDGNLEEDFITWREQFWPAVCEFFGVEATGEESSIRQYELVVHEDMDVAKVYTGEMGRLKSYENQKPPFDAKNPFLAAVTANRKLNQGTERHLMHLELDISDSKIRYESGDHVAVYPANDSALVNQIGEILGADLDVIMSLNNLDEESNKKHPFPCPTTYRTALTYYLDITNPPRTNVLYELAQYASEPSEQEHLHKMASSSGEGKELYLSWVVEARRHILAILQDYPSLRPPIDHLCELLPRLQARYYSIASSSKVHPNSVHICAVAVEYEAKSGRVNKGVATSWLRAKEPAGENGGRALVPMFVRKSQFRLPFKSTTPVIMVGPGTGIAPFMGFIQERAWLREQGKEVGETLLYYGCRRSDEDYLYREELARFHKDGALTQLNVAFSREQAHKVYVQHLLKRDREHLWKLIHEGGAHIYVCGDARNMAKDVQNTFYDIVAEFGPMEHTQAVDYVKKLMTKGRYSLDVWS

CC(=O)[C@H]1CC[C@H]2[C@@H]3CCC4=CC(=O)CC[C@]4(C)[C@H]3CC[C@]12C [PRG, progesterone]
Kd: 35 µM
